Here are results for seven molecules from patent US20180064829A1, “FLUORESCENT BISPHOSPHONATE ANALOGS” (University of Southern California, priority 2015, published 2018).

Read-outs that look alike come from different tables or passages of the source.

For series [1], the system named is unprenylated Rap1A (uRap1A). Nature of the series: Prenylation assay: Western blot for unprenylated Rap1A in J774.2 macrophages. Type of series: cell-based, mouse. Particulars: 10 or 100 μM, 24 h, FIG. 5A-C. On the procedure:
To determine the effect of fluorescent BP probes on protein prenylation, J774.2 mouse macrophages were plated out at 2×10^5 cells/mL in 24-well plates and left to adhere overnight. Cells were then treated with 10 or 100 μM of fluorescent analogues of RIS, dRIS, and ZOL, the respective native BP, or vehicle, for 24 h. Cells were lysed in radioimmunoprecipitation buffer, and proteins were separated by sodium dodecyl sulfate polyacrylamide gel electrophoresis and transferred to polyvinyl difluoride membranes by western blotting. Membranes were then incubated with antibodies to the unprenylated form of Rap1A (uRap1A) and the housekeeping protein β-actin, which were detected by incubation with fluorescently-labeled secondary antibodies and scanning of membranes on a LI-COR Infrared Imager. Results shown are representative of 2 independent experiments. The ratio between abundance of unprenylated RaplA and β-actin is indicated for each sample below the blots in FIG. 5.

The conditions of series [2]: assumed the same as the corresponding fluorescent dye, cited from earlier work.
Series [3] is described as follows: UV-VIS absorption and fluorescence emission spectra. Type of series: physicochemical. Particulars: 0.1M phosphate buffer (1x PBS for 7d5); ± 1 nm error. On the procedure: All labeled samples were dissolved in water and diluted with 0.1 M phosphate buffer or 1×PBS (for 7d5). Assuming that the labeled bisphosphonates have the same extinction coefficient (E) as the carboxylic acid of the free fluorescent label, the final concentrations for all labeled products were calculated from UV-VIS absorption spectra at λ=493 nm (ε=73000 M^−1 cm^−1 at pH 7.2) for FAM conjugates (7a1-7a3, 7b1, 7c1, 7d1-7d2, 7e1-7e2, 7f1-7f2), λ=567.5 nm (ε=114850 M^−1cm^−1 at pH 7.5) for RhR-X conjugates (7a4, 7b2, 7c2), λ=580 nm (c=72000 M^−1cm^−1 at pH 8.0) for ROX conjugates (7a5, 7b3), λ=648 nm (ε=240000 M^−1cm^−1 at pH 7.2) for AF647 conjugates (7a6, 7b4, 7d3), λ=774 nm (ε=240000 M^−1cm^−1 at pH 7.4) for 800CW conjugates (7d4), λ=644 nm (ε=271000 M^−1cm^−1 at pH 7.4, 1×PBS) for Sulfo-Cy5 conjugates (7d5).
Emission spectra for FAM and RhR-X conjugates were recorded using an excitation wavelength of 490 nm or 520 nm, respectively. Emission spectra for AF647 conjugates and Sulfo-Cy5 conjugates were recorded using an excitation wavelength of 600 nm. Emission spectra of 5(6)-ROX conjugates were recorded using an excitation wavelength of 575 nm. Emission spectra of IRDye CW800 conjugate was recorded using an excitation wavelength of 750 nm. The set-up of excitation slit, emission slit, integration time and increment were determined to get optimal spectra for each compound respectively, depending on the sample concentration and spectrometer used.

A short description of series [4]: Hydroxyapatite (HAP) column chromatography binding assay. Particulars: pH 6.8, phosphate gradient 1 to 1000 mM; FIG. 3. How it is done:
The fast performance liquid chromatography (FPLC) system consisted of a Waters 650E advanced protein purification system (Millipore Corp., Waters chromatography division, Milford, Mass.), a 600E system controller and a 484 tunable absorbance detector for UV absorbance assessment. Ceramic hydroxyapatite [HAP, […], Macro-Prep® Ceramic Hydroxyapatite Type II 20 μm 100 g, Bio-Rad Laboratories, Inc. Hercules, Calif.] was equilibrated with 1 mM phosphate buffer (pH 6.8) and packed in a 0.66 cm (diameter)×6.5 cm (length) glass column (Omnifit, Bio-chem Valve™ inc., Cambridge, U.K.), which was attached to the Waters 650E advanced protein purification system. Each sample was prepared in 1 mM potassium phosphate buffer, and 100 μL of 1 mM (0.1 μmol) sample was injected into the FPLC system. As a consequence, the compounds were absorbed and subsequently eluted at a flow rate of 2 ml/min by using a linear concentration gradient of phosphate from 1 to 1000 mM at pH 6.8. Fractions of each sample were collected in 80 tubes using an automated fraction collector (Gilson, France) and then used for subsequent ultraviolet (SPECTRAmax PLUS 384, Molecular Devices, CA) or fluorescence spectrometry detection (WALLAC VICTOR™, 1420 MULTILABEL COUNTER, Perkin Elmer, USA). […] The elution profile for each sample was determined in triplicate for statistical analysis (Prism, GraphPad Software, USA). […]

Series [5] is described as follows: pKa and protonation status of the heterocyclic nitrogen. Particulars: pH 6.0; calculated by Henderson-Hasselbalch equation. The format is physicochemical. An excerpt:
The nucleophilicity and Lewis basicity of the nitrogen atom of the three heterocyclic N-BPs studied in this report vary, and these properties appear to be the major determinants of their conjugation reactivity. Thus, the ‘magic linker’ methodology for RIS required modification for ZOL (1d), MIN (1e), and their related analogues (1f). […] The protonation status of the heteroatom at different pH is also critical to the reactivity. […] Under such conditions, more than 50% (˜71.3% calculated) of the nitrogen of RIS will be deprotonated, and able to attack the epoxide ring nucleophilically. However, at pH 6.0, only 18% of the nitrogen of ZOL (22% for MIN) is deprotonated, thus the reactions were very slow (2d) at pH 6.0. At pH 7.0-7.5, reaction was more rapid, but the regioselectivity (N-alkylation vs. O-alkylation) for 1d, 1e, 1f was not as good as for RIS and its analogues (1a, 1b, 1c); 10-20% of side products could be observed, which were confirmed by HPLC, NMR and MS to be the products of N,O(P)-dialkylation (O-alkylation occurs between the phosphonate/carboxylate group of the drug and the epoxide). The reaction rate of MinPC (1f)-epoxide (5) coupling was even slower than ZOL under the same reaction conditions (same reactant ratio, pH 7.5, 40-45° C.), which might be due to a steric effect from the large heterocycle. In addition, the percent of side products was higher and O-alkylation products were also observed in the reaction mixture.
The following publications are incorporated by reference herein in their entirety: • [1] a) R. G. G. Russell, N. B. Watts, F. H. Ebetino, M. J. Rogers, Osteoporos. Int. 2008, 19, 733-759; b) F. Ebetino, A. Hogan, S. Sun, M. Tsoumpra, X. Duan, J. Triffitt, A. Kwaasi, J. Dunford, B. Barnett, U. Oppermann, M. Lundy, A. Boyde, B. Kashemirov, C. McKenna, R. Russell, Bone 2011, 49 20-33. • [2] a) I. Reid, M. Bolland, A. Grey, Bone 2007, 41, 318-320; b) A. Siddiqi, A. Payne, S. Zafar, Oral Surg. Oral Med. Oral Pathol. Oral Radiol. Endod. […]

The test system of series [6] is unprenylated Rap1A (uRap1A). Particulars: PC analogues versus N-BPs; cited from earlier work.
For series [7] the following is noted: parent compounds, ref. [23]; cited from earlier work.

Take “16-[2-carboxy-4-({2-hydroxy-3-[4-(2-hydroxy-2,2-diphosphonoethyl)pyridin-1-ium-1-yl]propyl}carbamoyl)phenyl]-3-oxa-9λ^5,23-diazaheptacyclo[17.7.1.1^5,9.0^2,17.0^4,15.0^23,27.0^13,28]octacosa-1(27),2(17),4,9(28), 13,15,18-heptaen-9-ylium [5(6)-ROX-RIS]”: the “accumulation of unprenylated Rap1A (anti-prenylation activity)” value in series [1] is “shows activity”. Also, the Extinction coefficient in series [2] (pH 8.0, 0.1M phosphate buffer) is 72,000 (pH 8.0) M^−1cm^−1. In addition, in series [3], the “Maximum absorption wavelength (λmax (abs), nm)” value is listed as 580 nm and the “Maximum emission wavelength (λmax (em), nm)” value worked out at 606 nm.
Consider `O=C(NCC(O)C[n+]1ccn(CC(O)(P(=O)(O)O)P(=O)(O)O)c1)c1ccc(C(=O)O)c(-c2c3ccc(=O)cc-3oc3cc(O)ccc23)c1` (stereo not drawn) [Compound 6-FAM-ZOL, 3-(3-(4-carboxy-3-(6-hydroxy-3-oxo-3H-xanthen-9-yl)benzamido)-2-hydroxypropyl)-1-(2-hydroxy-2,2-diphosphonoethyl)-1H-imidazol-3-ium], for which the “accumulation of unprenylated Rap1A (anti-prenylation activity)” value in series [1] is listed as “retain some activity, although their potencies are weaker than native ZOL”. In addition, the Extinction coefficient in series [2] (pH 7.2, 0.1M phosphate buffer) is listed as 73,000 (pH 7.2) M^−1cm^−1. Also, the “HAP binding affinity (retention time on HAP column, normalized to RIS)” value in series [4] is recorded as “slightly longer retention time on the HAP column than its 5-isomer”. In series [3], the “Maximum absorption wavelength (λmax (abs), nm)” value is given as 493 nm and the “Maximum emission wavelength (λmax (em), nm)” value is reported as 516 nm.
For the molecule `O=P(O)(O)C(O)(Cc1cnc2ccccn12)P(=O)(O)O` [MIN, (1-Hydroxy-2-imidazo[1,2-a]pyridin-3-yl-1-phosphonoethyl)phosphonic acid], the “fraction of the heterocyclic nitrogen deprotonated” value in series [5] is listed as 22%.
Regarding `O=C(O)C(O)(Cc1cnc2ccccn12)P(=O)(O)O` (stereo not drawn) [MINPC, 2-hydroxy-3-imidazo[1,2-a]pyridin-3-yl-2-phosphonopropionic acid], in series [6], the “activity in uRap1A and J774.2 cell viability screening assays” value is “much less active than the N-BPs”.
`O=C(O)C(O)(Cc1cccnc1)P(=O)(O)O` (stereo not drawn) [RISPC, 2-hydroxy-2-phosphono-3-pyridin-3-ylpropanoic acid]: the “activity in uRap1A and J774.2 cell viability screening assays” value in series [6] is given as “much less active than the N-BPs”. The “rank order of mineral binding affinity” value in series [7] is recorded as “RIS>dRIS>RISPC”.
In the case of `O=P(O)(O)C(O)(Cn1ccnc1)P(=O)(O)O` [ZOL, [1-hydroxy-2-(1H-imidazol-1-yl)ethane-1,1-diyl]bis(phosphonic acid)], the “fraction of the heterocyclic nitrogen deprotonated” value in series [5] is given as 18%.
Regarding `O=P(O)(O)C(Cc1cccnc1)P(=O)(O)O` [dRIS, (2-pyridin-3-ylethane-1,1-diyl)bis(phosphonic acid)], in series [7], the “rank order of mineral binding affinity” value is reported as “RIS>dRIS>RISPC”.
